The source of these data is ChEMBL document CHEMBL3046502, “In vitro antimicrobial and antitubercular studies of novel 6-substituted (pyrrolidin-1-yl)-2(1H)-pyridinones” (2012).

Assay type in all cases: functional
The test system of one test is Candida albicans. The test can be described thus: Antimicrobial activity against Candida albicans MTCC 227.
Test [1] concerns Mycobacterium tuberculosis. Nature of the test: Antimicrobial activity against Mycobacterium tuberculosis H37Rv. To be noted: for MIC: Mycobacterium tuberculosis, H37Rv.
A further test concerns Streptococcus pyogenes. The test can be described thus: Antimicrobial activity against Streptococcus pyogenes MTCC 443 by broth microdilution method. On the technique in general: In broth dilution the organism is exposed to a series of concentrations in liquid medium.
A further test relates to Escherichia coli. The test can be described thus: Antimicrobial activity against Escherichia coli MTCC 442 by broth microdilution method.
In the next test the test system is Staphylococcus aureus. Nature of the test: Antimicrobial activity against Staphylococcus aureus MTCC 96 by broth microdilution method.
For the next test, the system named is Aspergillus clavatus. Nature of the test: Antimicrobial activity against Aspergillus clavatus MTCC 1323.
The next test concerns Aspergillus niger. Nature of the test: Antimicrobial activity against Aspergillus niger MTCC 282.
The next test concerns Pseudomonas aeruginosa. Nature of the test: Antimicrobial activity against Pseudomonas aeruginosa MTCC 2488 by broth microdilution method.

The structures appear in SMILES notation. Converted amounts (≈) assume the structure as drawn.

As a reminder, the MIC is the least concentration at which growth counts as inhibited. As to `COc1ccc(-c2cc(N3CCCC3)n(-c3cccc(Cl)c3)c(=O)c2)cc1`, the MIC in the test with Candida albicans was found to be 1000 µg/mL (≈ 2630 µM); in test [1], 500 µg/mL (≈ 1310 µM); against Streptococcus pyogenes, 500 µg/mL (≈ 1310 µM); with Escherichia coli, 250 µg/mL (≈ 656 µM); against Staphylococcus aureus it was 500 µg/mL (≈ 1310 µM); against Aspergillus clavatus it was 1000 µg/mL (≈ 2630 µM). Moreover, the MIC in the test with Aspergillus niger came out at 1000 µg/mL (≈ 2630 µM); in the test on Pseudomonas aeruginosa it was 500 µg/mL (≈ 1310 µM). The “inhibition (INH)” value in test [1] was determined as 99%.

Consider `CO[C@H]1/C=C/O[C@@]2(C)Oc3c(C)c(O)c4c(O)c(c(/C=N/N5CCN(C)CC5)c(O)c4c3C2=O)NC(=O)/C(C)=C\C=C\[C@H](C)[C@H](O)[C@@H](C)[C@@H](O)[C@@H](C)[C@H](OC(C)=O)[C@@H]1C` [RIFAMPIN], for which, in test [1], the “inhibition (INH)” value was found to be 98% and inhibition of growth (MIC) required 40 µg/mL (≈ 48.6 µM).

For `COc1ccc(-c2cc(N3CCCC3)n(-c3cccc(Cl)c3)c(=O)c2/N=N/c2ccc(Cl)c(Cl)c2)cc1`, the MIC with Candida albicans turned out to be 100 µg/mL (≈ 181 µM); in test [1], 250 µg/mL (≈ 451 µM); with Streptococcus pyogenes, 500 µg/mL (≈ 903 µM); against Escherichia coli, 62.5 µg/mL (≈ 113 µM); in the test with Staphylococcus aureus it was 200 µg/mL (≈ 361 µM); against Aspergillus clavatus it was 1000 µg/mL (≈ 1810 µM). The results for the minimal inhibitory concentration (MIC) against Aspergillus niger and with Pseudomonas aeruginosa were 500 µg/mL (≈ 903 µM) and 200 µg/mL (≈ 361 µM), respectively. For the same molecule, the “inhibition (INH)” value in test [1] was 99%.

In the case of `COc1ccc(-c2cc(N3CCCC3)n(-c3cccc(Cl)c3)c(=O)c2/N=N/c2ccc(Cl)cc2[N+](=O)[O-])cc1`, the minimum inhibitory concentration (MIC) in the test on Candida albicans stood at 500 µg/mL (≈ 886 µM); in test [1], 1000 µg/mL (≈ 1770 µM); against Streptococcus pyogenes, 250 µg/mL (≈ 443 µM); with Escherichia coli, 250 µg/mL (≈ 443 µM); against Staphylococcus aureus, 250 µg/mL (≈ 443 µM); against Aspergillus clavatus, 200 µg/mL (≈ 354 µM). In addition, the MIC is 200 µg/mL (≈ 354 µM) with Aspergillus niger and 500 µg/mL (≈ 886 µM) in the test on Pseudomonas aeruginosa. The “inhibition (INH)” value in test [1] came out at 98%.

On to `COc1ccc(-c2cc(=O)n(-c3cccc(Cl)c3)c(N3CCCC3)c2/N=N/c2ccc(Cl)cc2[N+](=O)[O-])cc1`, for which the MIC stood at 250 µg/mL (≈ 443 µM) against Candida albicans; 500 µg/mL (≈ 886 µM) in test [1]; 250 µg/mL (≈ 443 µM) against Streptococcus pyogenes; 250 µg/mL (≈ 443 µM) in the test with Escherichia coli; 250 µg/mL (≈ 443 µM) in the test on Staphylococcus aureus; 200 µg/mL (≈ 354 µM) with Aspergillus clavatus. Further, the MIC in the test on Aspergillus niger was 200 µg/mL (≈ 354 µM); in the test with Pseudomonas aeruginosa, 500 µg/mL (≈ 886 µM). Moreover, in test [1], the “inhibition (INH)” value was 98%.

As to `COc1ccc(-c2cc(=O)n(-c3cccc(Cl)c3)c(N3CCCC3)c2/N=N/c2cc(Cl)ccc2Cl)cc1`, the minimum inhibitory concentration (MIC) in the test on Candida albicans was 1000 µg/mL (≈ 1810 µM); in test [1], 100 µg/mL (≈ 181 µM); in the test with Streptococcus pyogenes, 500 µg/mL (≈ 903 µM); with Escherichia coli, 100 µg/mL (≈ 181 µM); against Staphylococcus aureus, 500 µg/mL (≈ 903 µM); against Aspergillus clavatus, above 1000 µg/mL. The figures for the MIC against Aspergillus niger and in the test with Pseudomonas aeruginosa were above 1000 µg/mL and 500 µg/mL (≈ 903 µM), respectively. Also, in test [1], the “inhibition (INH)” value was found to be 99%.

For `COc1ccc(-c2cc(N3CCCC3)n(-c3cccc(Cl)c3)c(=O)c2Cn2cncn2)cc1`, the minimum inhibitory concentration (MIC) amounted to 200 µg/mL (≈ 433 µM) against Candida albicans; 500 µg/mL (≈ 1080 µM) in test [1]; 200 µg/mL (≈ 433 µM) in the test on Streptococcus pyogenes; 100 µg/mL (≈ 216 µM) against Escherichia coli; 250 µg/mL (≈ 541 µM) against Staphylococcus aureus; 500 µg/mL (≈ 1080 µM) in the test on Aspergillus clavatus. Moreover, the figures for the minimum inhibitory concentration (MIC) in the test with Aspergillus niger and against Pseudomonas aeruginosa were 250 µg/mL (≈ 541 µM) and 100 µg/mL (≈ 216 µM), respectively. Besides, the “inhibition (INH)” value in test [1] stood at 98%.

As for `COc1ccc(-c2cc(N3CCCC3)n(-c3cccc(Cl)c3)c(=O)c2/N=N/c2ccc([N+](=O)[O-])cc2Cl)cc1`, the MIC came to 250 µg/mL (≈ 443 µM) with Candida albicans; 200 µg/mL (≈ 354 µM) in the test on Streptococcus pyogenes; 250 µg/mL (≈ 443 µM) against Escherichia coli; 200 µg/mL (≈ 354 µM) in the test on Staphylococcus aureus; 500 µg/mL (≈ 886 µM) against Aspergillus clavatus; 500 µg/mL (≈ 886 µM) against Aspergillus niger. In the test with Pseudomonas aeruginosa, this molecule came in with a minimal inhibitory concentration (MIC) of 250 µg/mL (≈ 443 µM).

Regarding `COc1ccc(-c2cc(=O)n(-c3cccc(Cl)c3)c(N3CCCC3)c2/N=N/c2ccccc2[N+](=O)[O-])cc1`, the minimum inhibitory concentration (MIC) against Candida albicans was 250 µg/mL (≈ 472 µM); against Streptococcus pyogenes it was 100 µg/mL (≈ 189 µM); in the test on Escherichia coli, 200 µg/mL (≈ 377 µM); against Staphylococcus aureus, 100 µg/mL (≈ 189 µM); in the test on Aspergillus clavatus it was 250 µg/mL (≈ 472 µM); in the test with Aspergillus niger, 500 µg/mL (≈ 943 µM). Further, inhibition of growth in the test with Pseudomonas aeruginosa (MIC) required 200 µg/mL (≈ 377 µM).

Regarding `COc1ccc(-c2cc(N3CCCC3)n(-c3cccc(Cl)c3)c(=O)c2/N=N/c2ccccc2Cl)cc1`, the MIC was found to be 500 µg/mL (≈ 963 µM) against Candida albicans; 250 µg/mL (≈ 481 µM) in the test on Streptococcus pyogenes; 100 µg/mL (≈ 193 µM) against Escherichia coli; 250 µg/mL (≈ 481 µM) against Staphylococcus aureus; 250 µg/mL (≈ 481 µM) in the test on Aspergillus clavatus; 250 µg/mL (≈ 481 µM) against Aspergillus niger. In addition, the minimal inhibitory concentration (MIC) with Pseudomonas aeruginosa was determined as 100 µg/mL (≈ 193 µM).
